{"source": "patent US20250296909A1", "about": "“NOVEL BENZENE DERIVATIVE AND IMMUNOSUPPRESSION-RELATED USE THEREOF” (PROVIBIO CO., LTD., priority 2021, published 2025)", "key": {"[1]": {"system": "psoriasis mouse animal model", "assay": "Psoriasis mouse animal model (imiquimod-induced)", "type": "in vivo, BALB/c mice", "conditions": "40 mg/kg intraperitoneally twice a day", "description": "To confirm the therapeutic effect of compounds according to the present invention on psoriasis, a psoriasis animal model was established to evaluate the alleviation of skin lesions and changes in immune cell profiles by administering Compound 69 or Compound 83 via injection.\nTo establish a psoriasis mouse animal model, BALB/c mice (7 weeks old, 20 g, female) were purchased from Hana Biotech Co. and allowed to acclimate to the housing environment for one week. Afterward, the fur on the dorsal area of the mice was initially shaved using a shaver, followed by complete removal with depilatory cream (Nicrin Cream, comprising thioglycolic acid 80%, manufactured by ILDONG Pharmaceutical CO., LTD). The mice were then housed for 24 hours to confirm any wounds on their backs.\nSubsequently, in order to verify the preventive and therapeutic effects of compounds according to the present invention on psoriasis, five experimental groups were established as shown in FIG. 7 and Table 5. From the second to the fifth group, Aldara® cream was applied once daily for two weeks (14 days, total of 14 applications) at a dose of 80 mg (imiquimod, 4 mg) per mouse to induce psoriasis. Furthermore, to compare the preventive and therapeutic effects of compounds according to the present invention (Compound 69 and Compound 83) on psoriasis, 40 mg/kg of the compound per mouse was dissolved in DMSO corresponding to 10% of the dosing volume, and then diluted in a mixture of Cremophor EL-PEG 400-distilled water to achieve a final ratio of DMSO: Cremophor EL:PEG 400:distilled water to 1:1:4:4 (v/v/v/v). Subsequently, the respective injections were intraperitoneally administered at a dose of 100 μL per mouse, twice a day with a 12-hour interval. For the Vehicle control group, injections excluding the drug but comprising the vehicle solution (DMSO: Cremophor EL:PEG 400:distilled water=1:1:4:4 (v/v/v/v)) were administered at a dose of 100 μL per mouse, twice a day with a 12-hour interval.\nTo assess the impact of each compound on immune cells in vivo, the spleens of mice treated with each compound were harvested, and cells were extracted, and cells were suspended in MACS buffer (2 mM EDTA, 0.5% FBS, 137 mM NaCl, 2.7 mM KCl, 10 mM Na2HPO4, 1.8 mM KH2PO4, Miltenyi Biotech.). For flow cytometry analysis, each mouse's splenocytes were aliquoted at 5×10^5 cells per FACS tube (5 mL round tube, Falcon). To prevent non-specific antibody binding, each tube was treated with 1 μg/mL of anti-mouse CD16/CD32 (InVivoMAb) for 30 minutes, followed by centrifugation at 13,000 rpm for 5 minutes, and resuspended in 100 μL of MACS buffer. Subsequent experiments were conducted depending on the type of immune cells to be examined.\n(§1) For B cells, each FACS tube was stained with 1 μg/mL of FITC-conjugated anti-B220 antibody (eBioscience™) at 4° C. for 30 minutes, followed by washing with 2 mL of MACS buffer. Subsequently, each tube was centrifuged at 15,000 rpm for 5 minutes, the supernatant was removed, and the precipitated cells were fixed using 200 μL of 4% paraformaldehyde solution.\nFor T cells, each FACS tube was stained with 1 μg/mL of PerCP-Cy5.5-conjugated anti-CD3 antibody (Biolegend), FITC-conjugated anti-CD8 antibody (eBioscience™) and Cy7-conjugated anti-CD4 antibody (eBioscience™) at 4° C. for 30 minutes, followed by washing with 2 mL of MACS buffer. Subsequently, each tube was centrifuged at 15,000 rpm for 5 minutes, the supernatant was removed, and the precipitated cells were fixed using 200 μL of 4% paraformaldehyde solution.\nas §1, with “macrophages,” for “B cells,”, “anti-CD11b” for “anti-B220”"}, "spleen T cells": {"system": "spleen T cells", "assay": "T cell proliferation inhibition (CFSE, FACS), CD3/CD28-activated spleen T cells", "type": "cell-based, C57BL/6 mice", "outline": "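CFSE-labelled splenic T cells (CD90.2-isolated, 7-week C57BL/6 mice), 2×10^5/well, activated with anti-CD3/CD28 (0.5 μg/mL each) plus compound at 10, 30 or 50 μM in triplicate for 3 days at 37 °C. CFSE dilution by flow cytometry; inhibition % relative to CD3/CD28+DMSO proliferation.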"}, "[2]": {"conditions": "flow cytometry, versus psoriasis groups, FIG. 10"}}, "data": [{"compound": "CCCCCCCCCCCCNC(=O)c1cccnc1N", "note": "[Compound 69]", "values": [{"measurement": "skin lesions (erythema, thickness, exfoliation of back skin)", "setting": "[1]; 14 days, FIG. 8", "result": "either minimally present or hardly observed"}, {"measurement": "hyperkeratosis, parakeratosis, irregular acanthosis, infiltration of inflammatory cells (H&E staining)", "setting": "[1]; 14 days, FIG. 9", "result": "either minimally present or hardly observed"}, {"measurement": "proportion of B cells in the spleen", "setting": "[1]; [2]", "result": "increase"}, {"measurement": "proportion of CD11b granulocytes in the spleen", "setting": "[1]; [2]", "result": "decreased"}, {"measurement": "proportion of T cells in the spleen", "setting": "[1]; [2]", "result": "increase"}, {"measurement": "inhibition at 10 µM", "setting": "spleen T cells; Mus musculus, T-cell, 72 h, Table 2, 10 μM, 3 days, relative to CD3/CD28+DMSO, read-out: Proliferation inhibition rate (%)", "result": 99, "unit": "%"}, {"measurement": "inhibition at 30 µM", "setting": "spleen T cells; Mus musculus, T-cell, 72 h, Table 2, 30 μM, 3 days, relative to CD3/CD28+DMSO, read-out: Proliferation inhibition rate (%)", "result": 100, "unit": "%"}, {"measurement": "inhibition at 50 µM", "setting": "spleen T cells; Mus musculus, T-cell, 72 h, Table 2, 50 μM, 3 days, relative to CD3/CD28+DMSO, read-out: Proliferation inhibition rate (%)", "result": 100, "unit": "%"}, {"measurement": "cell proliferation read by FACS (FIG. 2)", "setting": "spleen T cells; concentrations ranging from 10 to 30 μM", "result": "inhibition of cell proliferation"}]}]}
